Reference: paper PMC5760531, “Action Potential Recording and Pro-arrhythmia Risk Analysis in Human Ventricular Trabeculae” (Frontiers in Physiology, 2018)

Tested on: human ventricular trabeculae
Assay: Action potential recording and pro-arrhythmic score analysis in human ventricular trabeculae (hVT);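 note: sharp microelectrode action potential recordings at 37°C in Tyrode-perfused trabeculae, 4 cumulative concentrations each applied 31 min, values averaged over last 30 APs, vehicle 0.1% DMSO as control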
Conditions: at 91-fold hETPC

`COc1c(N2C[C@@H]3CCCN[C@@H]3C2)c(F)cc2c(=O)c(C(=O)O)cn(C3CC3)c12` [MOXIFLOXACIN, Moxifloxacin] was tested, and the EAD detection was “only detected in one trabecula”.
